Key:
BALB/c mice = assay: In vivo mRNA delivery in mice with DNPs, whole-body bioluminescence imaging (IVIS)
liver = assay: In vivo mRNA delivery, IVIS imaging of organs: liver; parameters: species or system mice; key to Organs with luminescence: liver: strong: Strong meant the luminescence intensity in that organ was relatively high, compared to other organs; weak: Weak meant the luminescence intensity in that organ was relatively low, compared to other organs; conditions: Table 17; mice, IVIS, 4-6 h after injection; intensity relative to other organs
[1] = Stability of DNPs by DLS after storage at 5° C.; format: physicochemical; parameters: key: Excellent: the original sizes and distribution types remained almost the same after storage; Good: the original sizes and distribution types changed slightly (size difference was less than 100 nm) or the original size remained almost the same but the DLS curve showed more size distributions after storage
How it was run: (§1)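 DNPs in acetate buffer sized by DLS after storage at 5 °C. Stability ranked Excellent, Good or Not stable according to retention, shrinkage or growth of original size and narrowing or broadening of size distribution.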

lung = assay: In vivo mRNA delivery, IVIS imaging of organs: lung; parameters: species or system mice; key to Organs with luminescence: lung: strong: Strong meant the luminescence intensity in that organ was relatively high, compared to other organs; weak: Weak meant the luminescence intensity in that organ was relatively low, compared to other organs; conditions: Table 17; mice, IVIS, 4-6 h after injection; intensity relative to other organs
[2] = Dimensions (size, PDI) of DNPs co-assembled from IAJDs and Luc-mRNA by DLS; format: physicochemical
How it was run: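 Hydrodynamic size and PDI were read by dynamic light scattering at 23 °C, 175° backscatter, 633 nm. Particles formed by fast injection of ethanolic IAJD stock (80 mg/mL) into nucleoside-modified luciferase mRNA (stock 4.0 mg/mL) in 10 mM acetate pH 4.0, 5 s vortex.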

[3] = Stability of DNPs by DLS after storage at 5° C.; format: physicochemical; parameters: key to Original size distribution type (DLS curve) / Size distribution type (DLS curve): U: DLS curve showed unimodal size distribution; B: DLS curve showed bimodal size distribution; M: DLS curve showed multimodal size distribution; conditions: for pH Sample: DNPs: IAJD 4.0 mg/mL + Luc-mRNA 0.1 mg/mL, injection in acetate buffer pH 4.00; for PDI / Size (d, nm) / Original size distribution type (DLS curve): IAJD 4.0 mg/mL + Luc-mRNA 0.1 mg/mL; for PDI / Size (d, nm): acetate buffer; for Original size distribution type (DLS curve): before storage, acetate buffer pH 4.00
How it was run: as §1

[4] = Table 16, DNPs from IAJD 4 mg/mL and Luc-mRNA 0.10 mg/mL by injection in acetate buffer (10 mM, pH 4.0)
[5] = Table 17, DNPs used in vivo, IAJD 4 mg/mL, Luc-mRNA 0.10 mg/mL, acetate pH 4.0
[6] = Table 20, nonsymmetric IAJDs and MC3-Luc-mRNA

| PDI [2, 4] | Size (d, nm) [2, 4] [nm] | PDI [2, 5] | Size (d, nm) [2, 5] [nm] | pH Sample [3] | Original size distribution type (DLS curve) [3] | Ranking of stability ([1]; after 21 days at 5° C.) | Size distribution type (DLS curve) ([3]; after 21 days at 5° C.) | PDI ([3]; after 21 days at 5° C.) | Size (d, nm) ([3]; after 21 days at 5° C.) [nm] | SMILES | In vivo activity (total flux, p/s) (BALB/c mice; Table 19, nonsymmetric IAJDs) | Organs with luminescence: liver (liver) | Organs with luminescence: lung (lung) | In vivo activity (total flux, p/s) (BALB/c mice; [6]) | also measured |
| --- | --- | --- | --- | --- | --- | --- | --- | --- | --- | --- | --- | --- | --- | --- | --- |
| 0.203 | 235 | 0.203 | 235 | 4.84 | (U) |  |  |  |  | CCCCCCCCCCCCCCOc1cc(COC(=O)CCCN2CCN(CCO)CC2)cc(OCCCCCCCCCCCCC)c1 [IAJD 172, 3-(Tetradecyloxy)-5-(tridecyloxy)benzyl 4-(4-(2-hydroxyethyl)piperazin-1-yl)butanoate] | 6.82 × 10^7 p/s | liver (weak), | Lung (weak), |  | Ranking of stability ([1]; after 14 days at 5° C.): Excellent; Size distribution type (DLS curve) ([3]; after 14 days at 5° C.): (U); PDI ([3]; after 14 days at 5° C.): 0.219; Size (d, nm) ([3]; after 14 days at 5° C.): 225 nm |
| 0.301 | 139 | 0.301 | 139 | 4.79 | (U) | Good | (B) | 0.376 | 132 | CCCCCCCCCCCCCCCCOc1cc(COC(=O)CCCN2CCN(C)CC2)cc(OCCCCCCCCCCCCC)c1 [IAJD 173, 3-(Hexadecyloxy)-5-(tridecyloxy)benzyl 4-(4-methylpiperazin-1-yl)butanoate] | 1.23 × 10^8 p/s | liver (strong), | Lung (weak), | 1.23 × 10^8 p/s |  |
| 0.275 | 159 | 0.275 | 159 | 4.76 | (B) | Excellent | (B) | 0.218 | 153 | CCCCCCCCCCCCCCCCCCOc1cc(COC(=O)CCCN2CCN(C)CC2)cc(OCCCCCCCCCCCCC)c1 [IAJD 177, 3-(Octadecyloxy)-5-(tridecyloxy)benzyl 4-(4-methylpiperazin-1-yl)butanoate] | 9.18 × 10^7 p/s | liver (strong), | Lung (weak), | 9.18 × 10^7 p/s |  |
| 0.223 | 344 | 0.223 | 344 | 4.58 | (U) | Excellent | (U) | 0.261 | 261 | CCCCCCCCCCCCCCCCCCOc1cc(COC(=O)CCCN2CCN(CCO)CC2)cc(OCCCCCCCCCCCCC)c1 [IAJD 178, 3-(Octadecyloxy)-5-(tridecyloxy)benzyl 4-(4-(2-hydroxyethyl)piperazin-1-yl)butanoate] | 4.05 × 10^8 p/s | liver (weak), | Lung (weak), | 4.05 × 10^8 p/s | total flux luminescence (BALB/c mice; mice, in vivo Luc-mRNA transfection): 4.05×10^8 p/s; in vivo activity, times higher than symmetric IAJD with the same headgroup (BALB/c mice; nonsymmetric vs symmetric alkyl chains (178 vs 99 (18/18))): 90.2 times; in vivo activity, times lower than of MC3 (BALB/c mice; total flux luminescence vs MC3): 4.2 times |
